The results in this text go back to patent publication US8536187B2 (Gilead Sciences, Inc., priority 2008, dated 2013).

A short description of data set [1]: CC50 assay (CellTiter-Glo) in Huh-7 HCV replicon cells. The data set is classed as cell-based. To be noted: human, Table 2, 3 days incubation. Summed up:
(§1)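 Cytotoxicity (CC50) read by CellTiter-Glo luminescence after 10 min, and antiviral EC50 by luciferase signal after 30 min lysis with substrate, both at room temperature. Preceding step: 3-day exposure of 6000 Huh-7 HCV replicon cells per well to compound dilution series at 37° C, 5% CO2, in 0.5% DMSO.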

Data set [2] deals with HCV replicon in human hepatoma Huh-7 cell line. As to the kind of experiment: Anti-HCV replicon assay, EC50 (luciferase luminescence). It is filed as cell-based. Conditions: Hepatitis C virus, Huh-7, 72 h. Summed up: as §1
(In general: Replicon systems follow genome replication, usually without infectious particles.)

SMILES strings stand for the structures.

Turning to `C[C@@H](Nc1nc(NCC(F)(F)F)c2nc(C#CC(C)(C)O)ccc2n1)c1ccc(S(N)(=O)=O)cc1` [Example 276, (R)-4-(1-(6-(3-hydroxy-3-methylbut-1-ynyl)-4-(2,2,2-trifluoroethylamino)pyrido [3,2-d]pyrimidin-2-ylamino)ethyl)benzenesulfonamide], the CC50 (in general, the concentration giving 50% cytotoxicity) at 3 days in data set [1] was > 10000 nM. The concentration giving a half-maximal response (EC50) (in general, the midpoint of the concentration-response curve) in data set [2] was 250 to 2000 nM.

In data set [1], `C[C@@H](Nc1nc(NC2(C(F)(F)F)CC2)c2nc(-c3cccc(S(C)(=O)=O)c3)ccc2n1)c1ccc(-n2cncn2)cc1` [Example 47, N^2-((R)-1-(4-(1H-1,2,4-triazol-1-yl)phenyl)ethyl)-6-(3-(methylsulfonyl)phenyl)-N^4-(1-(trifluoromethyl)cyclopropyl) pyrido[3,2-d]pyrimidine-2,4-diamine] yielded a CC50 at 3 days of 1000 to 10000 nM. Further, in data set [2], the EC50 is < 100 nM.
